The values below come from article PMC10845951, “Characterization of a selective, iron-chelating antifungal compound that disrupts fungal metabolism and synergizes with fluconazole” (Microbiology Spectrum, 2024).

For one data set, the system named is C. glabrata WT. The data set is described as follows: Cell proliferation with metal supplementation. Type of data set: cell-based, Candida glabrata. The procedure: One-millimolar stocks of metal solutions (CaCl2, CuCl2, FeCl2, FeCl3, MgCl2, MnCl2, and ZnCl2) were prepared in mQH2O and autoclaved. […] Fifty microliters of either mQH2O or metal solution were added to each well, including 50 µL of refreshed C. glabrata WT with an adjusted OD600 of 0.15. The 96-well plates were measured at OD600 and incubated in plastic bags to prevent evaporation for 24 h, after which the final OD600 was measured.

Data set [1] has as its system Aft1/2 target genes FTR1, FET3, HMX1, LSO1 in WT S. cerevisiae. The data set can be described thus: RT-qPCR of Aft1/2 target genes. Type of data set: cell-based, Saccharomyces cerevisiae. As to conditions: WT Sc cells, 10 µM, 24 h. The procedure: WT and […] cells were grown overnight in complete supplement mixture (CSM). […] After 24 h of incubation, cells were collected, and total RNA purification, reverse transcription, and RT-qPCR were performed as previously described with minor modifications ([59], [66]). Briefly, total RNA was purified using the RNeasy Mini Kit (74104, Qiagen), and reverse transcription was performed using the QuantiTect Reverse Transcription Kit (205311, Qiagen). RT-qPCR experiments were done using the HOT FIREPol EvaGreen qPCR Mix (08-36-00001-10, Solis Biodyne) and a LightCycler 96 System (Roche). Expression of the 5S gene was used as a control. The primers used in RT-qPCR experiments are as follows: […]
A general note: Quantitative PCR measures a nucleic acid by following its amplification.

The next data set deals with G. mellonella larvae. The data set is described as follows: Toxicity of compound to Galleria mellonella larvae. As to conditions: high concentration (30 µM). It counts as in vivo. The procedure: Galleria mellonella was obtained from R.J. Mous Livebait (The Netherlands). The larvae were selected by weight (0.2–0.3 grams) and by the absence of dark spots on the cuticle. The larvae were maintained at room temperature, and the day before the experiment, they were transferred to the temperature at which the experiment was going to be performed (30°C). The number of dead caterpillars was scored every day. […] G. mellonella were infected with either C. glabrata 2001HT or FL-256; C. glabrata cells were grown in liquid media (Oxoid) overnight at 30°C with moderate shaking (150 rpm). Groups of 20 larvae per strain were infected in each experiment. The pro-leg area was cleaned with 70% ethanol using a swab. The larvae were inoculated with 10 µL of C. glabrata suspension at 2.5 × 10^6 cells/mL in PBS containing 50 µg/mL of ampicillin by injection, using a Hamilton syringe with 26-gauge needle in the last left pro-leg.

Data set [2] deals with C. glabrata cells. The data set can be described thus: CellTiter-Glo assay in Candida (relative ATP levels). It counts as cell-based, Candida glabrata. To be noted: 0.625, 2.5, 10 µM; 1, 3, 6, 24 h. The procedure: The samples were incubated for 24 h at 30°C and then measured for OD600. Equal number of cells were harvested in each time point according to an OD600 of 0.1–0.4 and then centrifuged at 7000 rpm for 5 minutes to remove the supernatant. The cell pellets were resuspended in 100-µL YNB −iron and then transferred to a 96-well plate. Finally, the samples were treated with 100-µL CellTiter-Glo and then measured for luminescence using a plate reader.

The next data set relates to Candida spp. The data set can be described thus: Compound screening: Candida proliferation (OD600, 24 h), strain panel. To be noted: YNB −iron. It counts as cell-based. The procedure: For experiments, yeast cells were routinely cultured in YPD media and incubated at 30°C overnight. The cultures were refreshed the next day for 2–3 h in YNB −iron (0.69% yeast nitrogen base without amino acids or iron, with 2% dextrose) media, unless stated, at the same temperature. After incubation, the optical density (OD600) of the cell cultures was measured and adjusted to 0.15.
The collismycin compounds were provided by EntreChem (Spain) at stock solutions of 20 mM in DMSO and stored at −20°C. For serial dilutions of the compounds in clear 96-well plates, intermediate stock concentrations of 100 µM of compound (100 µL for each technical replicate) were prepared in YNB −iron media unless otherwise specified, and 1:1 serial dilutions were performed using a multi-channel pipette. Fifty microliters of cell culture (OD600 = 0.15) were added to the wells containing the compounds, for a total volume of 150 µL. The final concentrations in the wells (with three technical replicates) were equivalent to 0.5, 1, 2.1, 4.2, 8.4, 16.7, 33.3, and 66.6 µM. The OD600 of each well was quantified, and the plates were incubated inside plastic bags (to prevent evaporation) at 30°C for 24 h, after which the final OD600 was measured. The EC50 was calculated using the four-parameter log logistic function with the drc package in R ([57]).

Data set [3] has as its system C. glabrata cells. The data set can be described thus: ROS assay (H2DCF-DA fluorescence). Type of data set: cell-based, Candida glabrata. To be noted: 30 µM.

With `c1ccc(-c2cccc(-c3ccccn3)n2)nc1` [2,2′:6′,2′′-terpyridine], the “change of EC50 on metal addition” value was “significantly increased” in the data set on C. glabrata WT (+5 µM Cu^2+ (CuCl2), 24 h); “significantly increased” with C. glabrata WT (+5 µM FeCl2, 24 h); “significantly increased” with C. glabrata WT (+5 µM Zn^2+ (ZnCl2), 24 h). Besides, the “expression of Aft1/2 target genes FTR1, FET3, HMX1, LSO1” value in data set [1] is “robust activation”. The “expression of control 5S RNA” value in data set [1] is “no effect”. For the same compound, in the data set with G. mellonella larvae, the “toxicity to the larvae” value is listed as “well tolerated”. Besides, the “relative ATP levels (luminescence)” value in the data set on C. glabrata cells [2] was “concentration- and time-dependent reduction in luminescence”. Moreover, the “inhibition of growth of Candida spp. compared to ColA” value in the data set on Candida spp. is reported as “more potently than ColA”. Besides, the ROS formation result with C. glabrata cells [3] (3 or 6 h) is on record as “no ROS formation could be detected”; with C. glabrata cells [3] (24 h), “significant ROS production”.
